Results on one compound are retold here after US10576147B2, “Muramyl peptide derivative compound, synthesis and uses thereof” (BHARAT BIOTECH INTERNATIONAL LIMITED, priority 2015, dated 2020).

This series relates to Peripheral blood mononuclear cells (PBMCs). The series can be described thus: In-vitro pyrogen test (IL-1β, IL-6, TNF-α by ELISA). In kind it is cell-based. As for the experimental part:
Generally, pyrogenicity of any molecule can be measured by the over production of pro-inflammatory cytokines IL-1β, IL-6, and TNFα, following an activation of monocytes in-vitro, which inturn, could be an indicative of increased reactogenicity in-vivo.
Frozen Peripheral blood mononuclear cells (PBMCs) were revived and plated (0.5×10^6 cells/ml, 100 μl) in 96 well round bottom cell culture plate. Cells were supplemented with RPMI 1640 medium (Gibco Laboratories, Grand Island, N.Y.) containing fetal bovine serum (10%), glutamine (2 mM), and pencillin-streptomycin. Cells further stimulated with LPS (10 ng/ml) or endotoxin (1 EU/ml, 0.5 EU/ml, 0.25 EU/ml, 0.125 EU/ml) or MDP-MN (10 or 100 μg/ml). Cells stimulated with LPS or endotoxin was incubated for 4 hrs where as cells stimulated with MDP derivatives of the present invention kept for incubation in humidified CO2 chamber at 37° C. for 24 hrs. After stimulation, cell culture supernatant was collected and cytokines (such as IL-1β, IL-6 or TNF-α) were measured by ELISA. Concentrations each cytokine produced by PBMCs in the presence of reference standard endotoxin at 0.5 EU/ml was measured in triplicates. Threshold levels were calculated for each cytokine, using the cytokine levels produced by the reference standard endotoxin at 0.5 EU/ml (Marina et al., Vaccine 30 (2012) 4859-4865).
To determine Interleukin 1β, Enzyme Linked Immunosorbent Assay (ELISA) was performed according to the instruction manual (ebioscience, cat#88-7010). Briefly, capture antibody (cat#14-7018-67, eBioscience) was first diluted 1:250 using coating buffer and added 100 μL to each well in 96-well microplate. Plates were incubated overnight at 2-8° C. Coated plates were then washed with wash buffer (PBST). After washing, these plates were blocked using 1× assay diluent for 1 hr at room temperature followed by washing with PBST. A series of 2 fold dilutions were made from top standard ranging from 4 to 500 pg/mL, to make the standard curve. Similarly, 4 fold dilutions (1:4, 1:16 & 1:64) of cell supernatant obtained from PBMCs stimulation with MDP-MN were prepared. Aliquot (100 μL) of diluted standards or cell supernatants were added to well in duplicates and the plate was incubated at room temperature for 2 hrs. After washing the plate, 100 μL/well of detection antibody (cat#33-7016-67) diluted in 1× Assay diluent was added and incubated at room temperature for 1 hr. Later, 100 μL/well of Avidin-HRP* diluted in 1× Assay diluent was added and incubated at room temperature for 30 minutes. Finally, after washes, 100 μL of substrate solution was added to each well and incubated at RT for 15 minutes. Reaction was stopped by the addition of 50 μL of 2N H2SO4 to each well and the plate was read at 450 nm. […]
A general note: An ELISA detects its analyte on a solid surface through an enzyme-linked reagent.

Regarding `C[C@H](NC(=O)[C@@H](C)O[C@H]1[C@H](O)[C@@H](CO)OC(O)[C@@H]1NC(=O)[C@H](O)CO)C(=O)N[C@H](CCC(=O)O)C(N)=O` (stereo partly drawn) [MDP-MN, (4R)-5-amino-4-((2S)-2-((2R)-2-(((3R,4R,5S,6R)-3-((2,3-dihydroxypropanamido))-2,5-dihydroxy-6-(hydroxymethyl)tetrahydro-2H-pyran-4-yl)oxy)propanamido)propanamido)-5-oxopentanoic acid], the “IL-1β level vs threshold” value (MDP-MN at both 10 & 100 μg/ml, 24 hrs, (endotoxin 0.5 EU/ml)) is on record as “within the threshold value”. For the same compound, the “TNF-α level vs threshold” value (MDP-MN at both 10 & 100 μg/ml, 24 hrs, threshold 753 μg/ml) is “within the threshold value”. For the same compound, the “IL-6 level vs threshold” value (MDP-MN at both 10 & 100 μg/ml, 24 hrs, threshold 3110 μg/ml) is given as “within the threshold value”. In addition, for the setting “in-vitro pyrogen test”, the pyrogenicity result is recorded as “doesn't cause any pyrogenicity”.
